Experimental data taken from patent publication US20060116375A1, “4-[(2,4-Dichloro-5-methoxyphenyl)amino]-6-alkoxy-7-ethynyl-3-quinolinecarbonitriles for the treatment of ischemic injury” (Wyeth, priority 2004, published 2006).
Values joined by “and” are separate entries in the source; they are usually repeats but may differ in a detail not shown here. Identical values can stand only once. Values belong to the molecule of their own block, whether it stands above or below them.

Columns and labels:
[1] = target: Recombinant human Src enzyme (Homo sapiens, UniProt P12931); assay: Src kinase assay (LANCE homogeneous FRET); assay type: biochemical; conditions: 100 μM ATP, 70 min at 37° C.; multiple entries = tested multiple times
Chain of Recombinant human Src enzyme (P12931 whole entry): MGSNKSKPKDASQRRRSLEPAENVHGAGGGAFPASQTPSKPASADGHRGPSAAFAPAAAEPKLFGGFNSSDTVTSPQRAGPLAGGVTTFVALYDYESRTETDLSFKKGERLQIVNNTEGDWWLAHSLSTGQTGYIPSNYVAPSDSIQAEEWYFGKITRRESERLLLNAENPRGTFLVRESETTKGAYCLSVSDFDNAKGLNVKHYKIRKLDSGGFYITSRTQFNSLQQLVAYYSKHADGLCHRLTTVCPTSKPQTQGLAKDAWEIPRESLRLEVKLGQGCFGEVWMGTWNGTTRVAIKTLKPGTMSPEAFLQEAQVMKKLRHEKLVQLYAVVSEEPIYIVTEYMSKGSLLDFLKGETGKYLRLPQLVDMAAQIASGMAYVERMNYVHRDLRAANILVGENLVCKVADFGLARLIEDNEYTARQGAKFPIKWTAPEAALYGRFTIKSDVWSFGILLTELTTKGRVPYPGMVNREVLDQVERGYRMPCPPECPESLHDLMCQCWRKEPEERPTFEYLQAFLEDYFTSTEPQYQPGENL
Description: Recombinant human Src enzyme was obtained from PanVera (P3044). […] Homogeneous fluorescence resonance energy transfer kinase assays were performed using the europium/APC detection format (LANCE, Perkin Elmer). Src enzyme (10 ng) was mixed with biotinylated peptide (final concentration 2 μM), 50 mM Hepes (pH 7.5), 10 mM MgCl2, 20 ug/ml BSA, 0.001% Brij-35 (Sigma), 100 μM ATP, 1% DMSO. The kinase reaction was incubated for 70 min at 37° C. The reaction was stopped with EDTA at a final concentration of 30 mM EDTA/25 mM Hepes (pH 7.5)/10 μg/ml BSA. The mixture was combined with Eu-labeled anti-phosphotyrosine antibody PT66 (Perkin Elmer, AD0068) and Streptavidin Surelight-APC (Perkin Elmer, CR130-100) in 50 mM Hepes (pH 7.5)/20 μg/ml BSA, and incubated for 30 min according to manufacturer's specifications. Fluorescence intensity at 665 nm was used to monitor the extent of the kinase reaction. Multiple entries for a given compound indicate that it was tested multiple times.

[2] = target: Rat2 fibroblasts stably transformed with v-Src/Hu c-Src fusion gene (Homo sapiens, UniProt P12931, cells depend on it, form not given); assay: Anchorage independent Src-transformed fibroblast proliferation assay; assay type: cell-based, rat; conditions: suspension growth, MTS on Day 5; multiple entries = tested multiple times; read-out: Src cell IC50
Chain of Rat2 fibroblasts stably transformed with v-Src/Hu c-Src fusion gene (P12931 whole entry, change not shown, the tested form may be a part): as the sequence (P12931 whole entry) above
Description: Anchorage Independent Src-transformed Fibroblast Proliferation Assay
Rat2 fibroblasts stably transformed with a plasmid containing a CMV promotor controlled v-Src/Hu c-Src fusion gene in which the catalytic domain of human c-Src was inserted in place of the v-Src catalytic domain in the v-Src gene are used for the measurement of src dependent suspension growth. Ultra-low cluster plates (Costar # 3474) are seeded with 10,000 cells per well on Day 1. Alternatively, Ultra-low cluster plates (Costar 3474) treated with Sigmacote (Sigma), rinsed with 70% ethanol, after drying in the hood, are seeded with 5000 cells.

[3] = test system: rat model of transient focal ischemia; assay: Rat model of transient focal ischemia (90 min MCA occlusion, reperfusion 48 hours); assay type: in vivo, Wistar rats; conditions: for reduction in infarct volume as a percent of control: 48 hours post MCA occlusion, statistical error 7-10%; for improved recovery from stroke-induced neurological deficits, as a percent of control: evaluated over 48 hours, statistical error 10-12%
Description: IV Administration of Example 2 Provides Neuroprotection in a Model of Transient Focal Ischemia
Example 2 was tested in a rat model of transient focal ischemia. Wistar rats were subjected to a 90 min occlusion of the middle cerebral artery (MCA) using an intraluminal suture approach as described by Longa et al., Stroke 1989, 20:84 followed by reperfusion for 48 hours. Four hours after the initial onset of ischemia, animals received compound of Example 2 as a single i.v. bolus in 5% dextrose, 0.9% lactic acid at pH 4.5-5.0 (3 mg/kg, 10 mg/kg or 30 mg/kg). Following reperfusion, the animals were evaluated over a 48 hour period for neurological function deficit. Infarct size was measured following sacrifice at 48 hours post MCA occlusion.

[4] = test system: rat model of intracerebral hemorrhage; assay: Rat model of intracerebral hemorrhage induced by intrastriatal infusion of collagenase; assay type: in vivo; conditions: measured 24 hours later
Description: IV Administration of Example 2 Provides Neuroprotection in the Model of Hemorrhagic Stroke
Example 2 was tested in a rat model of intracerebral hemorrhage induced by intrastriatal infusion of collagenase substantially as described by Rosenberg et al., Stroke, 1990, 20:801. In this model, infusion of collagenase into caudate nucleus leads to proteolytic destruction of collagen in basal lamina of blood vessels and induces intracranial bleeding and edema peaking in 24-48 hours. Example 2 was administered at 4 hours post-induction of hemorrhagic stroke as a single i.v injection at the doses of 10 mg/kg or 30 mg/kg. 24 hours later brain water content was determined as a measure of edema.

[5] = test system: rat model of permanent occlusion of middle cerebral artery; assay: Rat model of permanent occlusion of middle cerebral artery (permanent focal ischemia); assay type: in vivo
Description: IV Administration of Example 2 Provides Neuroprotection and Improves Long-Term Neurological Recovery in a Model of Permanent Focal Ischemia
Example 2 was tested in a rat model of permanent occlusion of middle cerebral artery, without the reperfusion, substantially as described by Chen et al., Stroke, 1986, 17:738. This is a more stringent model than the transient focal ischemia. Two hours following an electrocoagulation of middle cerebral artery, vehicle or Example 2 were administered at 10 mg/kg i.v followed by 3 additional doses of 10 mg/kg iv administered at 4, 24 and 26 hours post-induction of stroke. In one study, volume of infracted brain tissue was evaluated at 48 hour post-stroke. In a second study, animals were subjected to testing of sensori-motor function based on tactile and propioceptive limb placement substantially as described by DeRyck et al., Brain Res. 1992, 573:44 at three day intervals over a timecourse of three weeks following stroke. In the animals treated with Example 2 a statistically significant reduction by 24% of the infarct volume was found at 48 hours post-induction of stroke.

[6] = 10 mg/kg single i.v. bolus 4 hours after onset of ischemia
[7] = 30 mg/kg single i.v. bolus 4 hours after onset of ischemia

- IC50 [1]: 5 nM and 4.7 nM
- GI50 [2]: 252 nM and 240 nM
SMILES: COc1cc(Nc2c(C#N)cnc3cc(C#CCCN(C)C)c(OC)cc23)c(Cl)cc1Cl [Example 1, 4-[(2,4-Dichloro-5-methoxyphenyl)amino]-7-[4-(dimethylamino)but-1-ynyl]-6-methoxy-3-guinolinecarbonitrile]

- IC50 [1]: 3.5 nM and 4.2 nM
- GI50 [2]: 71 nM and 70 nM and 77 nM
SMILES: COc1cc(Nc2c(C#N)cnc3cc(C#CCCN4CCN(C)CC4)c(OC)cc23)c(Cl)cc1Cl [Example 2, 4-[(2,4-Dichloro-5-methoxyphenyl)amino]-6-methoxy-7-[4-(4-methylpiperazin-1-yl)but-1-ynyl]-3-guinolinecarbonitrile]
- reduction in infarct volume as a percent of control [3, 6]: 32%
- improved recovery from stroke-induced neurological deficits, as a percent of control [3, 6]: 35%
- reduction in infarct volume as a percent of control [3, 7]: 40%
- improved recovery from stroke-induced neurological deficits, as a percent of control [3, 7]: 53%
- reduction of post-hemorrhagic brain edema (brain water content) ([4]; 10 mg/kg single i.v. injection 4 hours post-induction): 18%
- reduction of post-hemorrhagic brain edema (brain water content) ([4]; 30 mg/kg single i.v. injection 4 hours post-induction): 24%
- reduction of the infarct volume ([5]; 10 mg/kg i.v. at 2, 4, 24 and 26 hours post-induction of stroke, 48 hours post-stroke): 24%
- long-term sensorimotor recovery from neurological deficits (limb placement) ([5]; 10 mg/kg i.v. at 2, 4, 24 and 26 hours post-stroke, tested at three day intervals over three weeks): significantly improved long-term sensorimotor recovery

Continued, molecule first:

SMILES: COc1cc(Nc2c(C#N)cnc3cc(C#CCCN4CCOCC4)c(OC)cc23)c(Cl)cc1Cl [Example 3, 4-[(2,4-Dichloro-5-methoxyphenyl)amino]-6-methoxy-7-(4-morpholin-4-ylbut-1-ynyl)-3-guinolinecarbonitrile]
- IC50 [1]: 4 nM and 4.1 nM
- GI50 [2]: 206 nM and 183 nM

SMILES: COc1cc(Nc2c(C#N)cnc3cc(C#CCCN4CCNCC4)c(OC)cc23)c(Cl)cc1Cl [Example 4, 4-[(2,4-Dichloro-5-methoxyphenyl)amino]-6-methoxy-7-(4-Piperazin-1-ylbut-1-ynyl)-3-quinolinecarbonitrile]
- IC50 [1]: 5.9 nM and 4.8 nM
- GI50 [2]: 435 nM and 605 nM

SMILES: CCOc1cc2c(Nc3cc(OC)c(Cl)cc3Cl)c(C#N)cnc2cc1C#CCCN1CCN(C)CC1 [Example 5, 4-[(2,4-Dichloro-5-methoxyphenyl)amino]-6-ethoxy-7-[4-(4-methylpiperazin-1-yl)but-1-ynyl]-3-quinolinecarbonitrile]
- IC50 [1]: 6.5 nM and 2.8 nM
- GI50 [2]: 96 nM and 183 nM and 154 nM and 103 nM
